Source: patent US20070066608A1, “Novel indole derivatives with an improved antipsychotic activity” (priority 2003, published 2007)

Columns and labels:
Human 5HT1A receptor = target: T1, Human 5HT1A receptor (Homo sapiens, UniProt P08908); assay: Binding experiment for 5-HT1A receptor, [3H]8OHDPAT; settings: membranes of 5HT1A receptor-transfected L929 cells, read-out: pIC50 5HT1A (converted)
T1 construct: expressed in transfected cells; host or cells: L929 cells (stably transfected)
T1 sequence (P08908 1-422): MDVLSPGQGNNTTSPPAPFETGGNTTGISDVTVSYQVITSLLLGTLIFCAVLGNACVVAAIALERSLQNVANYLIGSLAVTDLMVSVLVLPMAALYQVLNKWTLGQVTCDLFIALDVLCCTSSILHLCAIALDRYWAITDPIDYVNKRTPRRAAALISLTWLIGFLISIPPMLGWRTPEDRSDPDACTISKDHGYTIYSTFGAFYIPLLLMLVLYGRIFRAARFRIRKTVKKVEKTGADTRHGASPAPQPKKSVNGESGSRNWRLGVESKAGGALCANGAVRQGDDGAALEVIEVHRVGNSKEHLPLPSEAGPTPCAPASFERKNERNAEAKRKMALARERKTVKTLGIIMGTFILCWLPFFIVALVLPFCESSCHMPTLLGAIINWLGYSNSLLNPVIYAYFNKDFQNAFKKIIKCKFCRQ
Experimental: (§1) The interaction of the compounds of Formula (I) with dopamine-receptors, h5HT-transporter and h5HT1A receptor was assessed in in vitro radioligand binding experiments. In general, a low concentration of a radioligand with a high binding affinity for a particular receptor or transporter is incubated with a sample of a tissue preparation enriched in a particular receptor or transporter or with a preparation of cells expressing cloned human receptors in a buffered medium. During the incubation, the radioligand binds to the receptor or transporter. When equilibrium of binding is reached, the receptor bound radioactivity is separated from the non-bound radioactivity, and the receptor- or transporter-bound activity is counted The interaction of the test compounds with the receptor is assessed in competition binding experiments. Various concentrations of the test compound are added to the incubation mixture containing the receptor- or transporter preparation and the radioligand. The test compound in proportion to its binding affinity and its concentration inhibits binding of the radioligand.
Human 5HT1A receptor-transfected L929 cells were collected by scraping into ice-cold Tris-HCl buffer (50 mM, pH 7.4). The suspension was centrifuged (23 500×g, 10 min, 4° C.) and pellets stored at −70° C. until required. They were then thawed and briefly homogenised using an Ultra-Turrax T25 homogeniser prior to dilution to an appropriate protein concentration optimised for specific and non-specific binding. [^3H]8OHDPAT (NEN, specific activity 127 Ci/mmol) was diluted in Tris-HCl assay buffer containing CaCl2 (50 mM and 4 mM, respectively; pH 7.7) at a concentration of 5 nmol/L. Prepared radioligand (50 μl) was then incubated (30 min, 37° C.) with membrane preparations from L929 cells stably-transfected with the h5HT1A gene construct (400 μl) and with 50 μl of either the 10% DMSO control, spiroxatrine (10^−6 mol/L final concentration), or compound of interest. Membrane-bound activity was detected by filtration through a Packard Filtermate harvester onto Unifaltemplates, washing with ice-cold Tris-HCI buffer (3×4 ml), followed by drying. Scintillation fluid was added and membranes were counted in a Topcount scintillation counter. % Specific bound and competition binding curves were calculated using S-Plus software (Insightful).

[1] = target: T2, Human Dopamine D3 receptor (Homo sapiens, UniProt P35462); assay: Radioligand binding experiment for dopamine D3 receptor (hD3), [125I]Iodosulpride; settings: membranes of D3 receptor-transfected CHO cells, read-out: pIC50 D3 (converted)
T2 construct: expressed in transfected cells; host or cells: CHO cells
Experimental: as §1
Human Dopamine D3 receptor-transfected CHO cells were collected by scraping into ice-cold Tris-HCl buffer (50 mM, pH 7.4). The suspension was centrifuged (23 500×g, 10 min, 4° C.) and pellets stored at −70° C. until required. They were then thawed and briefly homogenised using an Ultra-Turrax T25 homogeniser prior to dilution to an appropriate protein concentration optimised for specific and non-specific binding. [^125]Iodosulpride (Amersham, specific activity 2000 Ci/mmol) was diluted in Tris-HCl assay buffer containing NaCl, CaCl2, MgCl2, KCl and BSA (50, 120, 2, 1, 5 mM, 0.1% respectively, adjusted to pH 7.7 with HCl) at a concentration of 2 nmol/L. Prepared radioligand (20 μl) was incubated (60 min, RT) and with 20 μl of either the 10% DMSO control, Risperidone (10^−6 mol/L final concentration), or compound of interest, then with membrane preparations (80 μl). Overnight incubation followed after addition of WGA-coated PVT SPA beads (250 μl; Amersham) and membrane-bound counts measured in a Wallac Microbeta. % Specific bound and competition binding curves were calculated using S-Plus software (Insightful).

T2 sequence (P35462 whole entry): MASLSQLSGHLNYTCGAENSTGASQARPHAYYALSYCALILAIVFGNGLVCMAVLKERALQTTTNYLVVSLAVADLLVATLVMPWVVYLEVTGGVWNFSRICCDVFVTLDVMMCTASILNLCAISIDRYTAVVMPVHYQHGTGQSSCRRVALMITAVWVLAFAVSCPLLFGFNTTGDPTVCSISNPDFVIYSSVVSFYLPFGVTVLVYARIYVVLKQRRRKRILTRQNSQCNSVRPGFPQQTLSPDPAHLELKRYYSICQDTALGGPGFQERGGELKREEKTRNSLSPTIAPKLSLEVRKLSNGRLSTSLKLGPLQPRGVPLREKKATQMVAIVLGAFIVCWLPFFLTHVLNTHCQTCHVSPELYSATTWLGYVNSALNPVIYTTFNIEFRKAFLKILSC

SMILES: Fc1ccc2[nH]cc(C3=CCN(CC4Oc5cccnc5O4)CC3)c2c1 (centres unmarked) [Compound 7]
- IC50 (Human 5HT1A receptor): 398 nM
- IC50 [1]: 15.8 nM
